Data as given in ChEMBL document CHEMBL4118129, “Evaluation of novel TGR5 agonist in combination with Sitagliptin for possible treatment of type 2 diabetes” (Bioorg Med Chem Lett, 2018).

Columns and labels:
Type in all cases: ADME, organism-based
[1] = Tmax in C57BL/6 mouse at 30 mg/kg, po by LC-MS/MS analysis; settings: in vivo
[2] = Cmax in C57BL/6 mouse at 30 mg/kg, po by LC-MS/MS analysis; parameters: dose 30 mg/kg, route oral; settings: in vivo
[3] = AUC in C57BL/6 mouse at 30 mg/kg, po by LC-MS/MS analysis; settings: in vivo
[4] = Terminal half life in C57BL/6 mouse at 30 mg/kg, po by LC-MS/MS analysis; settings: in vivo, read-out: beta t1/2 (converted)

Tmax [1]: 12 min
Cmax [2]: 2.1 µM
AUC [3]: 2500 nM·h
half-life [4]: 60 min
Structure (SMILES): COc1ccc(C(C)(C)c2cnc(SCCOCc3ccc(C#N)cc3)n2-c2ccc(F)cc2)cc1OC
